Assay results as given in ChEMBL document CHEMBL4229569, “Structure-Based Design of 1-Heteroaryl-1,3-propanediamine Derivatives as a Novel Series of CC-Chemokine Receptor 5 Antagonists” (J Med Chem, 2018).

Key:
[1] = molecular target: C-C chemokine receptor type 5 (Homo sapiens, UniProt P51681); assay: Antagonist activity at CCR5 (unknown origin) expressed in HEK293 cells co-expressing Galpha16 assessed as inhibition of RANTES-induced calcium flux preincubated for 10 mins followed by RANTES addition by fluo-4AM-based fluorescence assay; assay type: functional, cell-based
Chain of C-C chemokine receptor type 5 (P51681 whole entry): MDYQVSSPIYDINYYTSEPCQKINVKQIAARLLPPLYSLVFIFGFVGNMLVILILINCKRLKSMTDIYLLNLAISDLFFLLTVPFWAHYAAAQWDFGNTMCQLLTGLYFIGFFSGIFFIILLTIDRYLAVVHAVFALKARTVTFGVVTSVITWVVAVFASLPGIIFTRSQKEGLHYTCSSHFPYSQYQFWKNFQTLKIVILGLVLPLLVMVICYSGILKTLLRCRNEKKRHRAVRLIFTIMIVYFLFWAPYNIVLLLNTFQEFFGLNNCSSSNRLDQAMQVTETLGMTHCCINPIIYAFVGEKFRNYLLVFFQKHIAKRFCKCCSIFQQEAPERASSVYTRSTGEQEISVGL

[2] = Cytotoxicity against human TZM-bl cells after 48 hrs by MTT assay; assay type: cell-based
[3] = Cmax in Sprague-Dawley rat at 20 mg/kg, po by LC-MS/MS analysis; assay type: ADME, organism-based; parameters: dose 20 mg/kg, route oral; conditions: in vivo
[4] = Tmax in Sprague-Dawley rat at 20 mg/kg, po by LC-MS/MS analysis; assay type: ADME, organism-based; conditions: in vivo
[5] = Half life in Sprague-Dawley rat at 20 mg/kg, po by LC-MS/MS analysis; assay type: ADME, organism-based; conditions: in vivo
[6] = AUC (0 to infinity) in Sprague-Dawley rat at 20 mg/kg, po by LC-MS/MS analysis; assay type: ADME, organism-based; parameters: dose 20 mg/kg, route oral, time infinity; conditions: in vivo
[7] = MRT in Sprague-Dawley rat at 20 mg/kg, po by LC-MS/MS analysis; assay type: ADME, organism-based; conditions: in vivo
[8] = Oral bioavailability in Sprague-Dawley rat at 20 mg/kg by LC-MS/MS analysis; assay type: ADME, organism-based; conditions: in vivo
[9] = Cmax in Sprague-Dawley rat at 10 mg/kg, iv by LC-MS/MS analysis; assay type: ADME, organism-based; parameters: dose 10 mg/kg, route intravenous; conditions: in vivo
[10] = Tmax in Sprague-Dawley rat at 10 mg/kg, iv by LC-MS/MS analysis; assay type: ADME, organism-based; conditions: in vivo
[11] = Half life in Sprague-Dawley rat at 10 mg/kg, iv by LC-MS/MS analysis; assay type: ADME, organism-based; conditions: in vivo
[12] = AUC (0 to infinity) in Sprague-Dawley rat at 10 mg/kg, iv by LC-MS/MS analysis; assay type: ADME, organism-based; parameters: dose 10 mg/kg, time infinity, route intravenous; conditions: in vivo
[13] = MRT in Sprague-Dawley rat at 10 mg/kg, iv by LC-MS/MS analysis; assay type: ADME, organism-based; conditions: in vivo
[14] = Clearance in Sprague-Dawley rat at 10 mg/kg, iv by LC-MS/MS analysis; assay type: ADME, organism-based; conditions: in vivo
[15] = Cmax in dog at 15 mg/kg, po by LC-MS/MS analysis; assay type: ADME, organism-based, Canis lupus familiaris; parameters: dose 15 mg/kg, route oral; conditions: in vivo
[16] = Tmax in dog at 15 mg/kg, po by LC-MS/MS analysis; assay type: ADME, organism-based, Canis lupus familiaris; conditions: in vivo
[17] = Half life in dog at 15 mg/kg, po by LC-MS/MS analysis; assay type: ADME, organism-based, Canis lupus familiaris; conditions: in vivo
[18] = AUC (0 to infinity) in dog at 15 mg/kg, po by LC-MS/MS analysis; assay type: ADME, organism-based, Canis lupus familiaris; parameters: dose 15 mg/kg, time infinity, route oral; conditions: in vivo
[19] = MRT in dog at 15 mg/kg, po by LC-MS/MS analysis; assay type: ADME, organism-based, Canis lupus familiaris; conditions: in vivo
[20] = Oral bioavailability in dog at 15 mg/kg by LC-MS/MS analysis; assay type: ADME, organism-based, Canis lupus familiaris; conditions: in vivo
[21] = Half life in dog at 3 mg/kg, iv by LC-MS/MS analysis; assay type: ADME, organism-based, Canis lupus familiaris; conditions: in vivo
[22] = AUC (0 to infinity) in dog at 3 mg/kg, iv by LC-MS/MS analysis; assay type: ADME, organism-based, Canis lupus familiaris; parameters: dose 3 mg/kg, route intravenous, time infinity; conditions: in vivo
[23] = MRT in dog at 3 mg/kg, iv by LC-MS/MS analysis; assay type: ADME, organism-based, Canis lupus familiaris; conditions: in vivo
[24] = Clearance in dog at 3 mg/kg, iv by LC-MS/MS analysis; assay type: ADME, organism-based, Canis lupus familiaris; conditions: in vivo
Hepatocyte [25] = assay: Metabolic stability in human hepatocytes assessed as compound remaining by UPLC/Q-TOF mass spectrometric analysis; assay type: ADME, cell-based
Hepatocyte [26] = assay: Metabolic stability in monkey hepatocytes assessed as compound remaining by UPLC/Q-TOF mass spectrometric analysis; assay type: ADME, cell-based, Macaca mulatta; conditions: rhesus monkey
Hepatocyte [27] = assay: Metabolic stability in dog hepatocytes assessed as compound remaining by UPLC/Q-TOF mass spectrometric analysis; assay type: ADME, cell-based, Canis lupus familiaris
Hepatocyte [28] = assay: Metabolic stability in rat hepatocytes assessed as compound remaining by UPLC/Q-TOF mass spectrometric analysis; assay type: ADME, cell-based
[29] = molecular target: Voltage-gated inwardly rectifying potassium channel KCNH2 (Homo sapiens, UniProt Q12809); assay: Inhibition of human ERG expressed in CHO cells at holding potential of -80 mV after 60 secs by patch clamp assay; assay type: cell-based
Chain of Voltage-gated inwardly rectifying potassium channel KCNH2 (Q12809 whole entry): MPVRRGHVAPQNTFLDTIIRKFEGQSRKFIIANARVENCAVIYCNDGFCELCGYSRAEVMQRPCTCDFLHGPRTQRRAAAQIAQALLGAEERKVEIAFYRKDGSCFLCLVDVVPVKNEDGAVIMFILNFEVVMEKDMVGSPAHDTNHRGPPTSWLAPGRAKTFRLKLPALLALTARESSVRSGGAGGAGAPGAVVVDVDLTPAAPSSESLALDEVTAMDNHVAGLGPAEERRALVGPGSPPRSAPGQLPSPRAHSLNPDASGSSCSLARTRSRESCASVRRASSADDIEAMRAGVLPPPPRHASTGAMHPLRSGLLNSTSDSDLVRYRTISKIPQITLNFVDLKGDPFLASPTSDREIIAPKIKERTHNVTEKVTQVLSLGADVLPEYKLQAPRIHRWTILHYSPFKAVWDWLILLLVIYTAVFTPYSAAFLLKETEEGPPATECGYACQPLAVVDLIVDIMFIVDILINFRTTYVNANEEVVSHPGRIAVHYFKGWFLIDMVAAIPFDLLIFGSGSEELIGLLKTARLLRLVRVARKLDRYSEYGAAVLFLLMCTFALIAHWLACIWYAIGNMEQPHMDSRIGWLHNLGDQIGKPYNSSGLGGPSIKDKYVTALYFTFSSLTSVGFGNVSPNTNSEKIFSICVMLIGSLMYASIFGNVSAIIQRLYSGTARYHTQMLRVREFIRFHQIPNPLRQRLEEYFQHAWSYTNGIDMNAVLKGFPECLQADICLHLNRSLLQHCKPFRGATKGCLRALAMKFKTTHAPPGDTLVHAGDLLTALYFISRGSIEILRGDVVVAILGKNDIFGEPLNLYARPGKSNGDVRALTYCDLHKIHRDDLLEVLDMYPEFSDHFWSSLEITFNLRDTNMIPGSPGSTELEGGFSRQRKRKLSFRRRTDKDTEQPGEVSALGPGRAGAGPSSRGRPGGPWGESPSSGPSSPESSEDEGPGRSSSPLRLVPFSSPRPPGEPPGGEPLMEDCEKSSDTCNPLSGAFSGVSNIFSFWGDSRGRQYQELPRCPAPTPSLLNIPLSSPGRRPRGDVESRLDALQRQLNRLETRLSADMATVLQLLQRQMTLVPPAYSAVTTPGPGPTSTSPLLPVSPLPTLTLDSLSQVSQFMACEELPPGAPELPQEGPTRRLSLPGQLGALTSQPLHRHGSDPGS

Cytochrome P450 1A2 = molecular target: T1, Cytochrome P450 1A2 (Homo sapiens, UniProt P05177); assay: Inhibition of CYP1A2 (unknown origin); assay type: ADME
T1 sequence (P05177 whole entry): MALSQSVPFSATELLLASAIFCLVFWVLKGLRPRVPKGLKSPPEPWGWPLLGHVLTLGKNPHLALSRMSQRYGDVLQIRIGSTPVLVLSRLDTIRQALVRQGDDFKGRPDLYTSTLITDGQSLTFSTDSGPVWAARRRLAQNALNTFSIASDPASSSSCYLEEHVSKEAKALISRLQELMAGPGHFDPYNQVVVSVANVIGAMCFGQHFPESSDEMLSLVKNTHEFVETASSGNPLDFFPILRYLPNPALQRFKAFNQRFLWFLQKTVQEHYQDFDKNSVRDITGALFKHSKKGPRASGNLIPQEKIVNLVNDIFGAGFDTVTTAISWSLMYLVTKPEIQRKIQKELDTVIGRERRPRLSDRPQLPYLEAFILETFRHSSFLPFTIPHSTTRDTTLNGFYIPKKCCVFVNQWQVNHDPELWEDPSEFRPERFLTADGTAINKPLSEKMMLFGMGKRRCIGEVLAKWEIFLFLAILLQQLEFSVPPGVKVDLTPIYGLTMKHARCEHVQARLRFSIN

Cytochrome P450 2C9 = Cytochrome P450 2C9 (Homo sapiens, UniProt P11712); assay: Inhibition of CYP2C9 (unknown origin); assay type: ADME
Chain of Cytochrome P450 2C9 (P11712 whole entry): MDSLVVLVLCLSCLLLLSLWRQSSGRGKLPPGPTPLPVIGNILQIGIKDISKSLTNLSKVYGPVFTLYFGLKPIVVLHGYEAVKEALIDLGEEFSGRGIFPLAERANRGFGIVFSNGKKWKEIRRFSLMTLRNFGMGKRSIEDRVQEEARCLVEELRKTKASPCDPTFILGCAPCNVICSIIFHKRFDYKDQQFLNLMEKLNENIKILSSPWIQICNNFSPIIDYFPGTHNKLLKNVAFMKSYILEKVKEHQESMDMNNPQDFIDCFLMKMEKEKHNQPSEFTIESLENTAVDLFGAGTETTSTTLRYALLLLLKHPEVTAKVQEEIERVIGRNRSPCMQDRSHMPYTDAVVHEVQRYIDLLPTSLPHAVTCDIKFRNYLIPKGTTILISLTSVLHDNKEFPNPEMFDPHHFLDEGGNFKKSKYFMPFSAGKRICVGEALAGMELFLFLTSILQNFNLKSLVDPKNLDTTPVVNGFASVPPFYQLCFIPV

Cytochrome P450 2C19 = Cytochrome P450 2C19 (Homo sapiens, UniProt P33261); assay: Inhibition of CYP2C19 (unknown origin); assay type: ADME
Chain of Cytochrome P450 2C19 (P33261 whole entry): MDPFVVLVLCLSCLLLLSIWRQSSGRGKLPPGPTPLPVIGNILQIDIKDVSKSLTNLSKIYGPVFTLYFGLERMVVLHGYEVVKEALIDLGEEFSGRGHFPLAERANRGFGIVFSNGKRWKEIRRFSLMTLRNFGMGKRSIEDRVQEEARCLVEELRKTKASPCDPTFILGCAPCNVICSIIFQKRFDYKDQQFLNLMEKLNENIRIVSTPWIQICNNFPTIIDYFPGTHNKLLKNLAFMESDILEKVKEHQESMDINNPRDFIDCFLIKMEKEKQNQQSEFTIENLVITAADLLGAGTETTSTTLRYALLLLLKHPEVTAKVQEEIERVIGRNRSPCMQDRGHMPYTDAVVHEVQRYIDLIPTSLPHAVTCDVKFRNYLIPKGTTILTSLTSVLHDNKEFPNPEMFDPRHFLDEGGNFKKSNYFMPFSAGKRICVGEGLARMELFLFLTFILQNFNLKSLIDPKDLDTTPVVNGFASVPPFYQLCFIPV

Cytochrome P450 2D6 = Cytochrome P450 2D6 (Homo sapiens, UniProt P10635); assay: Inhibition of CYP2D6 (unknown origin); assay type: ADME
Chain of Cytochrome P450 2D6 (P10635 whole entry): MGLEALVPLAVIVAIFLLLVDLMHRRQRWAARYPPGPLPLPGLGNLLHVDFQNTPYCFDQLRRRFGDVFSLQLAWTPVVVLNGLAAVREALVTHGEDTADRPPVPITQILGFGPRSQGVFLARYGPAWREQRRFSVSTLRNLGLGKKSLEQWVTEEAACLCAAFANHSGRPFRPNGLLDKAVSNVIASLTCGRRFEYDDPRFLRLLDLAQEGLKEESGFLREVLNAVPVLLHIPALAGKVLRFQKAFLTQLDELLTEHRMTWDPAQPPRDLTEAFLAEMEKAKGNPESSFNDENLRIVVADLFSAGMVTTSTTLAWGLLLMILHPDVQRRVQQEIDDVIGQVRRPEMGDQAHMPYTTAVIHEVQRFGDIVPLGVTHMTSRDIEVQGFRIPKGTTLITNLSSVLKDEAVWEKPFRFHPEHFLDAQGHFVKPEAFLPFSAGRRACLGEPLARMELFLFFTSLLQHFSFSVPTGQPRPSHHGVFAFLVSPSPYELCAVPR

Cytochrome P450 3A4 [30] = molecular target: T2, Cytochrome P450 3A4 (Homo sapiens, UniProt P08684); assay: Inhibition of CYP3A4 (unknown origin) using midazolam as substrate; assay type: ADME
T2 sequence (P08684 whole entry): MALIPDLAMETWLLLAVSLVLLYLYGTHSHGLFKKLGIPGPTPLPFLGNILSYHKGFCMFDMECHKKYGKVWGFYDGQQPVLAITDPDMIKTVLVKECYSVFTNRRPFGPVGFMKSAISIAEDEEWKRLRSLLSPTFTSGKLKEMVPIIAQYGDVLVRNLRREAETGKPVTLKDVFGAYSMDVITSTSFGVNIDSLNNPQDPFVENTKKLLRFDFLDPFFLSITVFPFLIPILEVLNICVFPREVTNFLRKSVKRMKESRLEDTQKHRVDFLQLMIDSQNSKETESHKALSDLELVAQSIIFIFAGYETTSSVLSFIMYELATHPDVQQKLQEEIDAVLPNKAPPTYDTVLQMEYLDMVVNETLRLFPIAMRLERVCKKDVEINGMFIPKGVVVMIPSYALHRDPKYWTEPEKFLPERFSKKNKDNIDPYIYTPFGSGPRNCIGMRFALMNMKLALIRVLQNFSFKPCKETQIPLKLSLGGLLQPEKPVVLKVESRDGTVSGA

Cytochrome P450 3A4 [31] = molecular target: T2, Cytochrome P450 3A4; assay: Inhibition of CYP3A4 (unknown origin) using testosterone as substrate; assay type: ADME
Rattus norvegicus [32] = assay: Toxicity in rat assessed as mortality at 2000 mg/kg, po administered as single dose and measured during 14 days observation period; assay type: organism-based; conditions: in vivo, 336 h
Canis familiaris [33] = assay: Toxicity in po dosed dog assessed as drug tolerability administered as single dose; assay type: organism-based, Canis lupus familiaris; conditions: in vivo
in vitro [34] = conditions: human, TZM-bl cells
Description: Therapeutic index, ratio of CC50 for human TZM-bl cells to EC50 for CCR5-dependent HIV1 SF162 infected in human TZM-bl cells

in vitro [35] = conditions: human, PBMC
Description: Therapeutic index, ratio of CC50 for human PBMC to IC50 for CCR5-dependent HIV1 SF162 infected in human PBMC cells

in vitro [36] = conditions: human, HOS cells
Description: Therapeutic index, ratio of CC50 for human HOS cells to IC50 for CCR5-dependent HIV1 SF162 infected in human HOS cells

in vitro [37] = conditions: human, PBMC; remark: listed apart in the source
Description: Therapeutic index, ratio of CC50 for human PBMC to IC50 for CCR5-dependent HIV1 KM018 infected in human PBMC

in vitro [38] = conditions: human, PBMC; remark: listed apart in the source
Description: Therapeutic index, ratio of CC50 for human PBMC to IC50 for CCR5-dependent HIV1 Ba-L infected in human PBMC

in vitro [39] = conditions: human, HOS cells; remark: listed apart in the source
Description: Therapeutic index, ratio of CC50 for human HOS cells to IC50 for CCR5-dependent HIV1 Ba-L infected in human HOS cells

in vitro [40] = conditions: human, PM1 cells
Description: Therapeutic index, ratio of CC50 for human PM1 cells to IC50 for CCR5-dependent HIV1 Ba-L infected in human PM1 cells

[41] = system: Human immunodeficiency virus 1; assay: microbe, parasite or virus in culture; conditions: Human immunodeficiency virus 1, SF162, TZM-bl, 48 h
Description: Antiviral activity against CCR5-dependent HIV1 SF162 infected in human TZM-bl cells assessed as reduction in virus infection measured after 48 hrs post infection by luciferase reporter gene assay

[42] = system: Human immunodeficiency virus 1; assay: microbe, parasite or virus in culture; conditions: Human immunodeficiency virus 1, SF162, PBMC, 168 h
Description: Antiviral activity against CCR5-dependent HIV1 SF162 infected in human PBMC assessed as reduction in virus infection measured after 7 days by luciferase reporter gene assay

[43] = system: Human immunodeficiency virus 1; assay: microbe, parasite or virus in culture; conditions: Human immunodeficiency virus 1, SF162, HOS, 120 h
Description: Antiviral activity against CCR5-dependent HIV1 SF162 infected in human HOS cells assessed as reduction in virus infection measured after 5 days by luciferase reporter gene assay

[44] = system: Human immunodeficiency virus 1; assay: microbe, parasite or virus in culture; conditions: Human immunodeficiency virus 1, KM018, PBMC, 168 h
Description: Antiviral activity against CCR5-dependent HIV1 KM018 infected in human PBMC assessed as reduction in virus infection measured after 7 days by luciferase reporter gene assay

[45] = system: Human immunodeficiency virus 1; assay: microbe, parasite or virus in culture; conditions: Human immunodeficiency virus 1, Ba-L, PBMC, 168 h
Description: Antiviral activity against CCR5-dependent HIV1 Ba-L infected in human PBMC assessed as reduction in virus infection measured 7 days by luciferase reporter gene assay

[46] = system: Human immunodeficiency virus 1; assay: microbe, parasite or virus in culture; conditions: Human immunodeficiency virus 1, Ba-L, HOS, 120 h
Description: Antiviral activity against CCR5-dependent HIV1 Ba-L infected in human HOS cells assessed as reduction in virus infection measured after 5 days by luciferase reporter gene assay

[47] = system: Human immunodeficiency virus 1; assay: microbe, parasite or virus in culture; conditions: Human immunodeficiency virus 1, Ba-L, PM1, 120 h
Description: Antiviral activity against CCR5-dependent HIV1 Ba-L infected in human PM1 cells assessed as reduction in virus infection measured after 5 days by luciferase reporter gene assay

[48] = AUC in rat at 10 mg/kg, po administered as single dose; assay type: ADME, organism-based; conditions: in vivo
[49] = Cmax in Sprague-Dawley rat at 10 mg/kg, po by LC-MS/MS analysis; assay type: ADME, organism-based; parameters: dose 10 mg/kg, route oral; conditions: in vivo
Rattus norvegicus [50] = assay: Tmax in Sprague-Dawley rat at 10 mg/kg, po by LC-MS/MS analysis; assay type: ADME, organism-based; conditions: in vivo
[51] = Cmax in dog at 2 mg/kg, po by LC-MS/MS analysis; assay type: ADME, organism-based, Canis lupus familiaris; parameters: dose 2 mg/kg, route oral; conditions: in vivo
[52] = Tmax in dog at 2 mg/kg, po by LC-MS/MS analysis; assay type: ADME, organism-based, Canis lupus familiaris; conditions: in vivo
Canis familiaris [53] = assay: Clearance in dog at 0.5 mg/kg, iv by LC-MS/MS analysis; assay type: ADME, organism-based, Canis lupus familiaris; conditions: in vivo
Canis familiaris [54] = assay: AUC (0 to infinity) in dog at 2 mg/kg, po by LC-MS/MS analysis; assay type: ADME, organism-based, Canis lupus familiaris; parameters: dose 2 mg/kg, route oral, time infinity; conditions: in vivo
Canis familiaris [55] = assay: Oral bioavailability in dog at 2 mg/kg by LC-MS/MS analysis; assay type: ADME, organism-based, Canis lupus familiaris; conditions: in vivo

With `Cc1nnc(C(C)C)n1[C@@H]1C[C@H]2CC[C@@H](C1)N2CC[C@H](NC(=O)C1CCC(F)(F)CC1)c1ccsc1` the IC50 [1] was 3 nM, the CC50 at 48 h [2] was greater than 200000 nM and the Cmax [3] was 306 ng/mL. For the same molecule, the Tmax [4] was 2 h, the half-life [5] was 1.6 h and the AUC(0-inf) [6] was 1260 ng·h/mL. The MRT [7] was 2.6 h, the bioavailability [8] was 14.5% and the Cmax [9] was 3780 ng/mL. It also gave a Tmax [10] of 0.25 h, a half-life [11] of 1.02 h and an AUC(0-inf) [12] of 4160 ng·h/mL. It also gave an MRT [13] of 0.8 h, a clearance [14] of 16.7 mL/min/kg and a Cmax [15] of 4610 ng/mL. It also gave a Tmax [16] of 0.8 h, a half-life [17] of 3.9 h and an AUC(0-inf) [18] of 5520 ng·h/mL. The MRT [19] was 2.1 h, the bioavailability [20] was 10% and the half-life [21] was 1.7 h. For the same molecule, the AUC(0-inf) [22] was 10900 ng·h/mL, the MRT [23] was 1.6 h and the clearance [24] was 5 mL/min/kg. The Stability (Hepatocyte [25]) was greater than 99%, the Stability (Hepatocyte [26]) was greater than 98% and the Stability (Hepatocyte [27]) was greater than 97%. It also gave a Stability (Hepatocyte [28]) greater than 97%, an IC50 [29] greater than 40000 nM and an IC50 (Cytochrome P450 1A2) greater than 25000 nM. The IC50 (Cytochrome P450 2C9) was greater than 25000 nM, the IC50 (Cytochrome P450 2C19) was greater than 25000 nM and the IC50 (Cytochrome P450 2D6) was greater than 25000 nM. For the same molecule, the IC50 (Cytochrome P450 3A4 [30]) was greater than 25000 nM, the IC50 (Cytochrome P450 3A4 [31]) was greater than 25000 nM and the Activity (Rattus norvegicus [32]) was “Non-Toxic”. For the same molecule, the Activity (Canis familiaris [33]) was “Non-Toxic”, the selectivity ratio (in vitro [34]) was greater than 130000 and the selectivity ratio (in vitro [35]) was 160000. The selectivity ratio (in vitro [36]) was 69000, the selectivity ratio (in vitro [37]) was 290000 and the selectivity ratio (in vitro [38]) was 220000. The selectivity ratio (in vitro [39]) was 280000, the selectivity ratio (in vitro [40]) was 260000 and the IC50 [41] was 1.5 nM. It also gave an IC50 [42] of 4.3 nM, an IC50 [43] of 4.9 nM and an IC50 [44] of 2.3 nM. For the same molecule, the IC50 [45] was 3 nM, the IC50 [46] was 1.2 nM and the IC50 [47] was 2.8 nM.

Work on `Cc1nnc(C(C)C)n1[C@@H]1C[C@H]2CC[C@@H](C1)N2CC[C@H](NC(=O)C1CCC(F)(F)CC1)c1ccccc1` [MARAVIROC] yielded an AUC [48] of 12.4 ng·h/mL, a CC50 at 48 h [2] greater than 200000 nM and a Cmax [49] of 5.5 ng/mL. For the same molecule, the Tmax (Rattus norvegicus [50]) was 2 h, the Stability (Hepatocyte [25]) was 33% and the Stability (Hepatocyte [27]) was 45%. The Stability (Hepatocyte [28]) was 79%, the Cmax [51] was 256 ng/mL and the Tmax [52] was 0.75 h. For the same molecule, the clearance (Canis familiaris [53]) was 21 mL/min/kg, the AUC (Canis familiaris [54]) was 583 ng·h/mL and the F (Canis familiaris [55]) was 40%.
